This note sets out measurements from the supplement of paper PMC11061612.

For experiment [1], the system named is SW48 (Colorectal Carcinoma). Briefly: combination Emax (second highest fraction inhibited in the dose matrix, 72 h); higher = more inhibition; extreme values may be limits of the assay. In a few lines: (§1)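 Cell lines in DMEM/F12 or RPMI with 10% FBS were plated in 1536-well plates, held 24 hours at 37°C, 5% CO2, then given two-drug dose matrices for 72 hours (DMSO typically 0.2%). Viability was read by CellTiter-Glo 2.0 luminescence and scaled as inhibition from 0 (vehicle wells) to 1 (blank wells). Combination Emax is the second-highest inhibition in the matrix; Bliss excess is observed combination effect minus expected EA + EB − EA·EB, EA and EB being single-agent effects.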

In another experiment the test system is HCC38 (Breast Carcinoma). Described as above. In a few lines: as §1
In the next experiment the test system is D-392MG (Glioblastoma). The experiment is described as above. In a few lines: as §1
In experiment [2] the test system is WSU-DLCL2 (B-Cell Non-Hodgkin's Lymphoma). Described as above. In outline:
as §1

Experiment [3] deals with P31-FUJ (Acute Myeloid Leukemia). The experiment is described as above. In a few lines: as §1
Experiment [4] concerns SNG-M (Endometrial Carcinoma). The description is as above. In outline: as §1
For experiment [5], the system named is DOK (Oral Cavity Carcinoma). The experiment is described as above. In outline: as §1
Experiment [6] has as its system NOMO-1 (Acute Myeloid Leukemia). Described as above. In outline: as §1
For experiment [7], the system named is TC-YIK (Other Solid Carcinomas). The description is as above. In outline: as §1
A further experiment concerns CS1 (Chondrosarcoma). Described as above. In outline:
as §1

Experiment [8] has as its system HCT-116 (Colorectal Carcinoma). The experiment is described as above. In outline:
as §1

For experiment [9], the system named is SK-LMS-1 (Other Solid Carcinomas). The description is as above. In outline: as §1
Experiment [10] concerns SK-UT-1 (Other Solid Carcinomas). Described as above. In a few lines:
as §1

For experiment [11], the system named is D-283MED (Other Solid Carcinomas). Briefly: Bliss excess, mean over the matrix (fraction); higher = more synergy. In outline:
as §1

As to `C[C@@H](Oc1cc(-c2cnn(C3CCNCC3)c2)cnc1N)c1c(Cl)ccc(F)c1Cl` [Crizotinib] + CC1=C(C(=CC=C1)Cl)NC(=O)C2=CN=C(S2)NC3=CC(=NC(=N3)C)N4CCN(CC4)CCO [Dasatinib] (first compound max 10 µM, 7x7, partner max 2 µM), the “combination Emax” value in experiment [1] was 0.892; in the experiment with HCC38 (Breast Carcinoma) it was 0.348; in the experiment with D-392MG (Glioblastoma), 0.921; in [2] it was 0.751; in experiment [3], 0.792; in [4] it was 0.973. For the same compound, the “combination Emax” value was 1 in experiment [5]; 0.528 in experiment [6]; 0.796 in experiment [7]; 0.836 in the experiment with CS1 (Chondrosarcoma); 0.95 in experiment [8]; 0.949 in [9]. For the same compound, the “combination Emax” value in experiment [10] is 0.454. Further, the Bliss excess in [11] turned out to be 0.0947.

On to `C[C@@H](Oc1cc(-c2cnn(C3CCNCC3)c2)cnc1N)c1c(Cl)ccc(F)c1Cl` [Crizotinib] + Cn1cnc2c(F)c(Nc3ccc(Br)cc3Cl)c(C(=O)NOCCO)cc21 [Selumetinib] (first compound max 10 µM, 7x7, partner max 10 µM), for which the “combination Emax” value in experiment [1] amounted to 0.95; in the experiment with HCC38 (Breast Carcinoma), 0.0593; in the experiment with D-392MG (Glioblastoma) it was 0.572; in [2], 0.596; in experiment [3] it was 0.755; in [4], 0.783. Also, the “combination Emax” value in experiment [5] was determined as 0.933; in experiment [6], 0.889; in experiment [7] it was 0.858; in the experiment with CS1 (Chondrosarcoma), 0.619; in [8], 0.964; in experiment [9] it was 0.78. The “combination Emax” value in [10] came to 0.331. For the same compound, the Bliss excess in experiment [11] was -0.0049.

Consider `O=C(c1cc(Cc2n[nH]c(=O)c3ccccc23)ccc1F)N1CCN(C(=O)C2CC2)CC1` [Olaparib] + CC1(C)CCC(CN2CCN(c3ccc(C(=O)NS(=O)(=O)c4ccc(NCC5CCOCC5)c([N+](=O)[O-])c4)c(Oc4cnc5[nH]ccc5c4)c3)CC2)=C(c2ccc(Cl)cc2)C1 [Venetoclax] (first compound max 10 µM, 7x7, partner max 1 µM), for which the “combination Emax” value in experiment [1] is 0.175; in the experiment with HCC38 (Breast Carcinoma) it was 0.179; with D-392MG (Glioblastoma), 0.114; in experiment [2], 0.452; in [3], 0.166; in experiment [4], 0.179. For the same compound, the “combination Emax” value is 0.108 in experiment [5]; 0.383 in experiment [6]; 0.403 in experiment [7]; 0.15 with CS1 (Chondrosarcoma); 0.384 in experiment [8]; 0.183 in [9]. For the same compound, the “combination Emax” value in experiment [10] turned out to be 0.162. Also, the Bliss excess in experiment [11] amounted to 0.0445.

As to `O=C(c1cc(Cc2n[nH]c(=O)c3ccccc23)ccc1F)N1CCN(C(=O)C2CC2)CC1` [Olaparib] + CN(CC[C@H](CSC1=CC=CC=C1)NC2=C(C=C(C=C2)S(=O)(=O)NC(=O)C3=CC=C(C=C3)N4CCC(CC4)[C@H](C5=CC=CC=C5C6=CC=C(C=C6)Cl)O)S(=O)(=O)C(F)(F)F)CCO [AZD4320] (first compound max 10 µM, 7x7, partner max 1 µM), the “combination Emax” value amounted to 0.687 in experiment [1]; 0.482 in the experiment on HCC38 (Breast Carcinoma); 0.321 in the experiment on D-392MG (Glioblastoma); 0.876 in [2]; 0.568 in experiment [3]; 0.401 in [4]. Besides, the “combination Emax” value in experiment [5] stood at 0.191; in [6], 0.348; in [7] it was 0.984; in the experiment with CS1 (Chondrosarcoma), 0.431; in experiment [8], 0.509; in [9] it was 0.494. For the same compound, the “combination Emax” value in experiment [10] was 0.466. Besides, in [11], the Bliss excess is 0.0204.

Take `O=C(c1cc(Cc2n[nH]c(=O)c3ccccc23)ccc1F)N1CCN(C(=O)C2CC2)CC1` [Olaparib] + COc1nnc2ccc(N3CCC(c4ccc(OCCN5CCN(C)C(=O)[C@H]5C)cc4)CC3)nn12 [AZD5153] (first compound max 10 µM, 7x7, partner max 1 µM): the “combination Emax” value was 0.561 in [1]; 0.412 in the experiment on HCC38 (Breast Carcinoma); 0.405 in the experiment with D-392MG (Glioblastoma); 0.949 in experiment [2]; 0.57 in experiment [3]; 0.47 in experiment [4]. The “combination Emax” value in experiment [5] was 0.445; in experiment [6], 0.939; in experiment [7], 0.85; in the experiment on CS1 (Chondrosarcoma), 0.374; in experiment [8] it was 0.741; in experiment [9], 0.544. Besides, in experiment [10], the “combination Emax” value came out at 0.559. The Bliss excess in [11] is -0.0542.

Turning to `O=C(c1cc(Cc2n[nH]c(=O)c3ccccc23)ccc1F)N1CCN(C(=O)C2CC2)CC1` [Olaparib] + Cc1c2c(nn1C)CSCc1cc(n(C)n1)CSc1cc(c3ccccc3c1)OCCCc1c(C(=O)O)n(C)c3c-2c(Cl)ccc13 [AZD5991] (first compound max 10 µM, 7x7, partner max 1 µM), the “combination Emax” value in experiment [1] stood at 0.178; in the experiment with HCC38 (Breast Carcinoma), 0.156; in the experiment on D-392MG (Glioblastoma), 0.142; in [2] it was 0.996; in [3] it was 0.964; in [4], 0.234. In addition, the “combination Emax” value in experiment [5] was 0.381; in experiment [6] it was 0.771; in [7], 0.449; with CS1 (Chondrosarcoma) it was 0.0992; in [8], 0.37; in experiment [9], 0.165. Also, in experiment [10], the “combination Emax” value worked out at 0.109. In addition, the Bliss excess in experiment [11] came out at 0.0172.

Turning to `N#Cc1cnc(Nc2cc(NC[C@H]3CNCCO3)c(C(F)(F)F)cn2)cn1` [SRA737] + C=CCn1c(=O)c2cnc(Nc3ccc(N4CCN(C)CC4)cc3)nc2n1-c1cccc(C(C)(C)O)n1 [AZD1775] (first compound max 10 µM, partner max 1 µM), the “combination Emax” value in experiment [1] stood at 0.764; in the experiment with HCC38 (Breast Carcinoma), 0.576; with D-392MG (Glioblastoma), 0.518; in experiment [2], 1; in experiment [3] it was 0.973; in experiment [4], 0.883. The “combination Emax” value in experiment [5] was determined as 0.481; in [6], 0.988; in experiment [7] it was 0.858; with CS1 (Chondrosarcoma) it was 0.596; in experiment [8], 0.758; in experiment [9], 0.649. Further, the “combination Emax” value in [10] worked out at 0.843. Moreover, in [11], the Bliss excess turned out to be 0.0779.

With `N#Cc1cnc(Nc2cc(NC[C@H]3CNCCO3)c(C(F)(F)F)cn2)cn1` [SRA737] + CCc1c2c(nc3ccc(O)cc13)-c1cc3c(c(=O)n1C2)COC(=O)[C@]3(O)CC [SN-38] (first compound max 10 µM, 7x7, partner max 0.3 µM), the “combination Emax” value in [1] is 0.854; in the experiment on HCC38 (Breast Carcinoma), 0.682; with D-392MG (Glioblastoma), 0.453; in [2], 1; in experiment [3] it was 0.984; in experiment [4] it was 0.786. The “combination Emax” value turned out to be 0.582 in experiment [5]; 0.997 in experiment [6]; 1 in experiment [7]; 0.786 in the experiment on CS1 (Chondrosarcoma); 0.818 in experiment [8]; 0.89 in experiment [9]. In addition, in [10], the “combination Emax” value was found to be 0.943. Further, in experiment [11], the Bliss excess is -0.0395.
